Measurements taken from US10821115B2, “Compounds that inhibit Mcl-1 protein” (priority 2017, dated 2020).
Read-outs that look alike come from different tables or passages of the source.

Assays:
[1] = test system: OPM-2 Luc cells; assay: OPM-2 xenograft efficacy model; assay type: in vivo; conditions: dosed orally to female athymic nude mice inoculated with OPM-2 Luc cells
Method: Example 1 was dosed orally to female athymic nude mice inoculated with OPM-2 Luc cells.

[2] = test system: human multiple myeloma cell line, OPM-2; assay: Cell viability assay (OPM-2 10 FBS), CellTiter-Glo; assay type: cell-based
Method in brief: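 Serially diluted test compounds are incubated 16 h with cells (3000/well) in RPMI 1640 supplemented with 10% FBS. Viability is then measured by luminescence and IC50 calculated by 4-parameter logistic fit.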

[3] = target: recombinant human Mcl-1 (residues 171-327) / Bim interaction (Homo sapiens (Human), UniProt Q07820); assay: biochemical; assay type: binding; conditions: read-out: Mcl-1 HTRF IC50
Sequence of recombinant human Mcl-1 (residues 171-327) / Bim interaction (Q07820 171-327): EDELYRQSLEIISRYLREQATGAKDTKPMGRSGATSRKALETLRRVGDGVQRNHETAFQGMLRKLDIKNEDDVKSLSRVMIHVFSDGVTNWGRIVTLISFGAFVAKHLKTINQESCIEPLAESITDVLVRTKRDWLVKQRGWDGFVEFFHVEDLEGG
Method: The inhibition of the Mcl-1/Bim interaction was measured using a time-resolved fluorescence resonance energy transfer (TR-FRET) assay. […] The TR-FRET assay was conducted in a 384-well white OptiPlate™ (PerkinElmer, Waltham, Mass.) in a total volume of 40 μL. The reaction mixture contained 0.1 nM Mcl-1(171-327), 0.05 nM biotin-Bim (51-76), 0.05 nM LANCE® Eu-W1024 Anti-6×His (PerkinElmer), 0.072 nM Streptavidin-Xlent (Cisbio, Bedford, Mass.), and serially diluted test compounds in the binding buffer of 20 mM Hepes, pH 7.5, 150 mM NaCl, 0.016 mM Brij®35, and 1 mM dithiothreitol. Test compounds were pre-incubated with Mcl-1(171-327) and biotin-Bim (51-76) for 60 min before addition of the detection mixture (LANCE® Eu-W1024 Anti-6×His and Streptavidin-Xlent). The reaction plates were further incubated overnight and then were read on an Envision® multimode reader (PerkinElmer). Fluorescence signals were measured at 620 nm (40-nm bandwidth) and 665 nm (7.5-nm bandwidth) with a 60 is delay after excitation at 320 nm (75-nm bandwidth). The signal ratio at 665/620 nm corresponded to the Mcl-1/Bim interaction and was used in all data analyses. The IC50 values of test compounds were determined from duplicate data by analyzing competition curves using a four-parameter sigmoidal model in GraphPad Prism (GraphPad Software, San Diego, Calif.) or in Genedata Screener® (Genedata, Basel, Switzerland).

[4] = test system: OPM-2 Luc cells; assay: tumor PD model (OPM-2 Luc); assay type: in vivo; conditions: dosed orally to female athymic nude mice inoculated with OPM-2 Luc cells; compared with Reference Compound 1
Method: Both compounds were dosed orally to female athymic nude mice inoculated with OPM-2 Luc cells.

[5] = read-out: OPM-2 10% FBS IC50 IP, OPM-2 cells, 10% FBS, 16 h incubation
[6] = 0.1 nM Mcl-1(171-327), 0.05 nM biotin-Bim (51-76)
[7] = Homo sapiens, OPM-2, 16 h, read-out: OPM-2 10% FBS IC50 IP, OPM-2 cells, 10% FBS, 16 h incubation
[8] = Homo sapiens, OPM-2, 16 h, read-out: OPM-2 10% FBS IC50 IP, OPM-2 cells, 10% FBS, 16 h, CellTiter-Glo
[9] = TR-FRET, Mcl-1(171-327) / biotin-Bim (51-76)
[10] = read-out: OPM-2 10% FBS IC50 IP, OPM-2 cells, 10% FBS, 16 h, CellTiter-Glo

“(1 S,3′R,6′R,7′R,8′E,11′S,12′R)-6-chloro-7′-((9aS)-hexahydropyrazino[2,1-c][1,4]oxazin-8(1H)-ylmethyl)-7′-methoxy-12′-(2-methoxyethyl)-11′-methyl-3,4-dihydro-2H, 15′H-spiro[naphthalene-1,22′-[20]oxa[13]thia[1,14]diazatetracyclo[14.7.2.0-3,6˜.0˜19,24˜]pentacosa[8,16,18,24]tetraen]-15′-one 13′,13′-dioxide [Example 11]” was tested, and the “in vivo efficacy in an OPM-2 xenograft efficacy model” value [1] was “in vivo efficacy” and the IC50 [2, 5] was 51 nM.

With CO[C@]1(CN2CCN3CCOC[C@@H]3C2)/C=C/C[C@H](C)[C@@H](C)S(=O)(=O)NC(=O)c2ccc3c(c2)N(C[C@@H]2CC[C@H]21)C[C@@]1(CCCc2cc(Cl)ccc21)CO3 [Example 4, (1S,3′R,6′R,7′R,8′E,11′S,12′R)-6-CHLORO-7′-((9AS)-HEXAHYDROPYRAZINO[2,1-C][1,4]OXAZIN-8(1H)-YLMETHYL)-7′-METHOXY-11′,12′-DIMETHYL-3,4-DIHYDRO-2H, 15′H-SPIRO[NAPHTHALENE-1,22′-[20]OXA[13]THIA[1,14]DIAZATETRACYCLO[14.7.2.0-3,6˜.0˜19,24˜]PENT ACOSA[8,16,18,24]TETRAEN]-15′-ONE 13′,13′-DIOXIDE] the “in vivo efficacy in an OPM-2 xenograft efficacy model” value [1] was “in vivo efficacy”, the IC50 [2, 5] was 94 nM and the IC50 [3, 6] was 0.116 nM. For the same compound, the “in vivo efficacy relative to Reference Compound 1 in a tumor PD model” value [4] was “superior in vivo efficacy”.

In the case of “(1 S,3′R,6′R,7′S,8′E,11′S, 12′R)-6-chloro-7′-((9aS)-hexahydropyrazino[2,1-c][1,4]oxazin-8(1H)-ylmethyl)-7′-methoxy-11′,12′-dimethyl-3,4-dihydro-2H, 15′H-spiro[naphthalene-1,22′-[20]oxa[13]thia[1,14,25]triazatetracyclo[14.7.2.0-3,6˜.0˜19,24˜]pentacosa[8,16,18,24]tetraen]-15′-one 13′,13′-dioxide [Example 18]”, the “in vivo efficacy in an OPM-2 xenograft efficacy model” value [1] is reported as “in vivo efficacy”, the IC50 [2, 5] is reported as 22 nM and the IC50 [3, 6] is reported as 0.06 nM. For the same compound, the “in vivo efficacy relative to Reference Compound 1 in a tumor PD model” value [4] was “superior in vivo efficacy”.

For CO[C@]1(CN2CCN(C3COC3)CC2)/C=C/C[C@H](C)[C@@H](C)S(=O)(=O)NC(=O)c2ccc3c(c2)N(C[C@@H]2CC[C@H]21)C[C@@]1(CCCc2cc(Cl)ccc21)CO3 [Example 3, (1 S,3′R,6′R,7′R,8′E,11′S,12′R)-6-chloro-7′-methoxy-11′,12′-dimethyl-7′-((4-(3-oxetanyl)-1-piperazinyl)methyl)-3,4-dihydro-2H, 15′H-spiro[naphthalene-1,22′-[20]oxa[13]thia[1,14]diazatetracyclo[14.7.2.0-3,6˜.0˜19,24˜]pentacosa[8,16,18,24]tetraen]-15′-one 13′,13′-dioxide], the IC50 [2, 5] was 60 nM, the IC50 [3, 6] was 0.094 nM and the “in vivo efficacy relative to Reference Compound 1 in a tumor PD model” value [4] was “superior in vivo efficacy”.

With CO[C@]1(CN2CCN3CCCC[C@@H]3C2)/C=C/C[C@H](C)[C@@H](C)S(=O)(=O)NC(=O)c2ccc3c(c2)N(C[C@@H]2CC[C@H]21)C[C@@]1(CCCc2cc(Cl)ccc21)CO3 [Example 10, (1 S,3′R,6′R,7′R,8′E, 11′S,12′R)-6-CHLORO-7′-METHOXY-11′,12′-DIMETHYL-7′-((9AR)-OCTAHYDRO-2H-PYRIDO[1,2-A]PYRAZIN-2-YLMETHYL)-3,4-DIHYDRO-2H, 15′H-SPIRO [NAPHTHALENE-1,22′-[20]OXA[13]THIA[1,14]DIAZATETRACYCLO [14.7.2.0-3,6˜.0˜19,24˜]PENTACOSA[8,16,18,24]TETRAEN]-15′-ONE 13′,13′-DIOXIDE] the “in vivo efficacy in an OPM-2 xenograft efficacy model” value [1] was “in vivo efficacy” and the IC50 [2, 5] was 75 nM.

In the case of CCCN1CCN(C[C@@]2(OCC)/C=C/C[C@H](C)[C@@H](C)S(=O)(=O)NC(=O)c3ccc4c(c3)N(C[C@@H]3CC[C@H]32)C[C@@]2(CCCc3cc(Cl)ccc32)CO4)CC1 [Example 98, (1S,3′R,6′R,7′R,8′E,11′S,12′R)-6-chloro-7′-ethoxy-11′,12′-dimethyl-7′-((4-propyl-1-piperazinyl)methyl)-3,4-dihydro-2H,15′H-spiro[naphthalene-1,22′-[20]oxa[13]thia[1,14]diazatetracyclo [14.7.2.0~3,6~.0~19,24~]pentacosa[8,16,18,24]tetraen]-15′-one 13′,13′-dioxide], the IC50 [2, 7] is reported as 183 nM and the IC50 [3, 6] is reported as 0.373 nM.

With C[C@@H]1[C@@H](C)C/C=C/[C@@](CO)(OCC(F)(F)F)[C@@H]2CC[C@H]2CN2C[C@@]3(CCCc4cc(Cl)ccc43)COc3ccc(cc32)C(=O)NS1(=O)=O (single isomer, unassigned) [Example 100604] the IC50 [2, 8] was 4110 nM and the IC50 [3, 9] was 0.723 nM.

Work on C[C@@H]1[C@@H](C)C/C=C/[C@@](O)(C#CCN(C)C)[C@@H]2CC[C@H]2CN2C[C@@]3(CCCc4cc(Cl)ccc43)COc3ccc(cc32)C(=O)NS1(=O)=O [Example 100294, (1S,3′R,6′R,7′S,8′E,11′S,12′R)-6-chloro-7′-(3-(dimethylamino)-1-propyn-1-yl)-7′-hydroxy-11′,12′-dimethyl-3,4-dihydro-2H,15′H-spiro[naphthalene-1,22′-[20]oxa[13]thia[1,14]diazatetracyclo [14.7.2.0~3,6~.0~19,24~]pentacosa[8,16,18,24]tetraen]-15′-one 13′,13′-dioxide] yielded an IC50 [2, 10] of 116 nM and an IC50 [3, 9] of 0.118 nM.

CC[C@@H]1CC/C=C/[C@](CN2CCN(C)CC2)(OC)[C@@H]2CC[C@H]2CN2C[C@@]3(CCCc4cc(Cl)ccc43)COc3ccc(cc32)C(=O)NS1(=O)=O [Example 31, (1S,3′R,6′R,7′S,8′E,12′R)-6-chloro-12′-ethyl-7′-methoxy-7′-((4-methyl-1-piperazinyl)methyl)-3,4-dihydro-2H,15′H-spiro[naphthalene-1,22′-[20]oxa[13]thia[1,14]diazatetracyclo [14.7.2.0~3,6~.0~19,24~]pentacosa[8,16,18,24]tetraen]-15′-one 13′,13′-dioxide] showed an IC50 [2, 7] of 216 nM and an IC50 [3, 6] of 0.184 nM.

Work on CO[C@@]1(CN2CCN(CC3OCCO3)CC2)/C=C/C[C@H](C)[C@@H](C)S(=O)(=O)NC(=O)c2ccc3c(c2)N(C[C@@H]2CC[C@H]21)C[C@@]1(CCCc2cc(Cl)ccc21)CO3 [Example 309, (1S,3′R,6′R,7′S,8′E,11′S,12′R)-6-chloro-7′-((4-(1,3-dioxolan-2-ylmethyl)-1-piperazinyl)methyl)-7′-methoxy-11′,12′-dimethyl-3,4-dihydro-2H,15′H-spiro[naphthalene-1,22′-[20]oxa[13]thia[1,14]diazatetracyclo [14.7.2.0~3,6~.0~19,24~]pentacosa[8,16,18,24]tetraen]-15′-one 13′,13′-dioxide] yielded an IC50 [2, 7] of 64 nM and an IC50 [3, 6] of 0.215 nM.

CO[C@]1(CN2CCN(C)CC2)/C=C/[C@H](C)[C@H](C)CS(=O)(=O)NC(=O)c2ccc3c(c2)N(C[C@@H]2CC[C@H]21)C[C@@]1(CCCc2cc(Cl)ccc21)CO3 [Example 160, (1S,3′R,6′R,7′R,8′E,10′S,11′S)-6-chloro-7′-methoxy-10′,11′-dimethyl-7′-((4-methyl-1-piperazinyl)methyl)-3,4-dihydro-2H,15′H-spiro[naphthalene-1,22′-[20]oxa[13]thia[1,14]diazatetracyclo [14.7.2.0~3,6~.0~19,24~]pentacosa[8,16,18,24]tetraen]-15′-one 13′,13′-dioxide] gave an IC50 [2, 7] of 148 nM and an IC50 [3, 6] of 0.221 nM.

In the case of CO[C@]1(c2ncccn2)/C=C/C[C@H](C)[C@@H](C)S(=O)(=O)NC(=O)c2ccc3c(c2)N(C[C@@H]2CC[C@H]21)C[C@@]1(CCCc2cc(Cl)ccc21)CO3 [Example 100278, (1S,3′R,6′R,7′R,8′E,11′S,12′R)-6-chloro-7′-methoxy-11′,12′-dimethyl-7′-(2-pyrimidinyl)-3,4-dihydro-2H,15′H-spiro[naphthalene-1,22′-[20]oxa[13]thia[1,14]diazatetracyclo [14.7.2.0~3,6~.0~19,24~]pentacosa[8,16,18,24]tetraen]-15′-one 13′,13′-dioxide], the IC50 [2, 8] is reported as 333 nM and the IC50 [3, 9] is reported as 0.458 nM.

With C[C@@H]1[C@@H](C)C/C=C/[C@@](O)(CC(=O)N(C)C)[C@@H]2CC[C@H]2CN2C[C@@]3(CCCc4cc(Cl)ccc43)COc3ccc(cc32)C(=O)NS1(=O)=O [Example 100077, 2-((1S,3′R,6′R,7′S,8′E,11′S,12′R)-6-chloro-7′-hydroxy-11′,12′-dimethyl-13′,13′-dioxido-15′-oxo-3,4-dihydro-2H-spiro[naphthalene-1,22′-[20]oxa[13]thia[1,14]diazatetracyclo [14.7.2.0~3,6~.0~19,24~]pentacosa[8,16,18,24]tetraen]-7′-yl)-N,N-dimethylacetamide] the IC50 [2, 10] was 52 nM and the IC50 [3, 9] was 0.19 nM.

Work on CO[C@@]1(CN2CC3(C2)CN(C(=O)OC(C)(C)C)C3)/C=C/C[C@H](C)[C@@H](C)S(=O)(=O)NC(=O)c2ccc3c(c2)N(C[C@@H]2CC[C@H]21)C[C@@]1(CCCc2cc(Cl)ccc21)CO3 [Example 204, tert-butyl 6-(((1S,3′R,6′R,7′S,8′E,11′S, 12′R)-6-chloro-7′-methoxy-11′,12′-dimethyl-13′,13′-dioxido-15′-oxo-3,4-dihydro-2H-spiro[naphthalene-1,22′-[20]oxa[13]thia[1,14]diazatetracyclo [14.7.2.0~3,6~.0~19,24~]pentacosa[8,16,18,24]tetraen]-7′-yl)methyl)-2,6-diazaspiro[3.3]heptane-2-carboxylate] yielded an IC50 [2, 7] of 319 nM and an IC50 [3, 6] of 0.23 nM.
